The record followed here is US12516064B2, “Tetrahydropyridopyrimidines and related analogs for inhibiting YAP/TAZ-TEAD” (THE KATHOLIEKE UNIVERSITEIT LEUVEN, priority 2022, dated 2026).

The test system of this experiment is YAP/TAZ-TEAD transcription. Kind of experiment: Reporter gene assay for measuring the inhibition of YAP/TAZ-TEAD transcription. It is filed as cell-based. The note with it: Homo sapiens, HEK-293T; Hek293T cells transiently transfected with TEAD-responsive element luciferase reporter; 24 hours incubation. As to the method: Hek293T cells are cultured in DMEM supplemented with 10% fetal bovine serum, Sodium pyruvate, Sodium bicarbonate, L-glutamine. The cells are harvested and transiently transfected with TEAD-responsive element luciferase reporter. Transfected cells are plated in 384-wells plate containing pre-diluted compounds. After 24 hours incubation at 37° C./5% CO2, assay plates were cooled down to RT and levelled to an equal volume per well, prior to the addition of 25 uL luciferase substrate SteadyLite (Perkin Elmer)/well. The plate was shaken for 10 min at 600 rpm, centrifuged for 1 min at 500 rpm and measured with an Envision reader (PerkinElmer). The amount of relative light units produced by the TEAD reporter is used to calculated percent of inhibition.
The percent of reporter inhibition was calculated in the presence of a positive control inhibitor (100% inhibition) versus a condition with the presence of the vehicle basal activity of the reporter (0% inhibition). The ability of a test compound to inhibit this activity was determined as: Percentage inhibition=[1−((RLU determined in the presence of vehicle−RLU determined for sample with test compound present) divided by (RLU determined in the presence of vehicle−RLU determined for sample with positive control inhibitor))]*100 The activities of example compounds tested are depicted in Table 8. The activity ranges A, B and C refer to IC50 values in the reporter gene assay as follows: “A”: EC50<1 μM; “B”: 1 μM≤EC50≤3.0 μM and “C”: EC50>3.0 μM, NT=not tested.
(A reporter such as luciferase makes a cellular process visible.)

Bounds are passed on as bounds.

Consider `CCC(=O)N1CCc2c(nc(Cc3ccccc3)nc2-c2ccn(Cc3cccnc3)n2)C1` [Cpd. No. 36, 1-(2-benzyl-4-(1-(pyridin-3-ylmethyl)-1H-pyrazol-3-yl)-5,8-dihydropyrido[3,4-d]pyrimidin-7(6H)-yl)propan-1-one], for which the EC50 (commonly the midpoint of the concentration-response curve) lay in the range of 1000 to 3000 nM.

As for `Cn1ccc(-c2nc(-c3ccccc3)nc3c2CCC(N)C3)n1` (stereo not shown) [Cpd. No. 5, 4-(1-methyl-1H-pyrazol-3-yl)-2-phenyl-5,6,7,8-tetrahydroquinazolin-7-amine], the half-maximal effective concentration (EC50) is over 3000 nM.

The molecule `C=CC(=O)N1CCc2cnc(-c3ccccc3)nc2C1` [Cpd. No. 68, 1-(2-phenyl-5,8-dihydropyrido[3,4-d]pyrimidin-7(6H)-yl)prop-2-en-1-one] yielded an EC50 of under 1000 nM.

The molecule `C=CC(=O)N1CCc2c(nc(-c3ccccc3)nc2-c2cnn(C(C)C)c2)C1` [Cpd. No. 57, 1-(4-(1-isopropyl-1H-pyrazol-4-yl)-2-phenyl-5,8-dihydropyrido[3,4-d]pyrimidin-7(6H)-yl)prop-2-en-1-one] showed a concentration giving a half-maximal response (EC50) of 1000 to 3000 nM.

With `CC(=O)NCC(=O)N1Cc2nc(-c3ccccc3)nc(-c3ccn(Cc4cccnc4)n3)c2C1` [Cpd. No. 26, N-(2-oxo-2-(2-phenyl-4-(1-(pyridin-3-ylmethyl)-1H-pyrazol-3-yl)-5,7-dihydro-6H-pyrrolo[3,4-d]pyrimidin-6-yl)ethyl)acetamide], the EC50 was over 3000 nM.

`C=CC(=O)N1CCc2c(nc(-c3ccccc3)nc2-c2cccnc2)C1` [Cpd. No. 63, 1-(2-phenyl-4-(pyridin-3-yl)-5,8-dihydropyrido[3,4-d]pyrimidin-7(6H)-yl)prop-2-en-1-one] yielded an EC50 of under 1000 nM.

Molecule `C=CC(=O)N1CCc2c(nc(-c3ccccc3)nc2-c2ccn(C(C)C)n2)C1` [Cpd. No. 60, 1-(4-(1-isopropyl-1H-pyrazol-3-yl)-2-phenyl-5,8-dihydropyrido[3,4-d]pyrimidin-7(6H)-yl)prop-2-en-1-one] yielded a concentration giving a half-maximal response (EC50) of under 1000 nM.

The molecule `C=CC(=O)N1Cc2nc(Cc3ccccc3)nc(-c3ccn(Cc4cccnc4)n3)c2C1` [Cpd. No. 17, 1-(2-benzyl-4-(1-(pyridin-3-ylmethyl)-1H-pyrazol-3-yl)-5,7-dihydro-6H-pyrrolo[3,4-d]pyrimidin-6-yl)prop-2-en-1-one] yielded a half-maximal effective concentration (EC50) of under 1000 nM.

On to `CCC(=O)N1CCc2c(nc(-c3ccc(C(F)(F)F)cc3)nc2-c2cn(C)nn2)C1` [Cpd. No. 91, 1-(4-(1-methyl-1H-1,2,3-triazol-4-yl)-2-(4-(trifluoromethyl)phenyl)-5,8-dihydropyrido[3,4-d]pyrimidin-7(6H)-yl)propan-1-one], for which the 50% effective concentration (EC50) lay in the range of 1000 to 3000 nM.

Molecule `C=CC(=O)N1CCc2c(nc(-c3ccc(C(F)(F)F)cc3)nc2-c2nnn(C)n2)C1` [Cpd. No. 81, 1-(4-(2-methyl-2H-tetrazol-5-yl)-2-(4-(trifluoromethyl)phenyl)-5,8-dihydropyrido[3,4-d]pyrimidin-7(6H)-yl)prop-2-en-1-one] came in with an EC50 of under 1000 nM.

For the molecule `C=CC(=O)N1CCc2c(nc(Cc3ccc(F)cc3)nc2-c2ccn(C)n2)C1` [Cpd. No. 41, 1-(2-(4-fluorobenzyl)-4-(1-methyl-1H-pyrazol-3-yl)-5,8-dihydropyrido[3,4-d]pyrimidin-7(6H)-yl)prop-2-en-1-one], the EC50 is under 1000 nM.

In the case of `Cn1ccc(-c2nc(Cc3ccccc3)nc3c2CN(S(C)(=O)=O)C3)n1` [Cpd. No. 22, 2-benzyl-4-(1-methyl-1H-pyrazol-3-yl)-6-(methylsulfonyl)-6,7-dihydro-5H-pyrrolo[3,4-d]pyrimidine], the EC50 is over 3000 nM.

Molecule `C=CC(=O)N1CCc2c(nc(Cc3ccc(C(F)(F)F)cc3)nc2-c2ccn(C)n2)C1` [Cpd. No. 45, 1-(4-(1-methyl-1H-pyrazol-3-yl)-2-(4-(trifluoromethyl)benzyl)-5,8-dihydropyrido[3,4-d]pyrimidin-7(6H)-yl)prop-2-en-1-one] yielded an EC50 of under 1000 nM.

Consider `Cn1ccc(-c2nc(-c3ccc(C(F)(F)F)cc3)nc3c2CCN(S(C)(=O)=O)C3)n1` [Cpd. No. 79, 4-(1-methyl-1H-pyrazol-3-yl)-7-(methylsulfonyl)-2-(4-(trifluoromethyl)phenyl)-5,6,7,8-tetrahydropyrido[3,4-d]pyrimidine], for which the EC50 lay in the range of 1000 to 3000 nM.

Molecule `C=CC(=O)N1CCc2c(nc(-c3ccccc3)nc2-c2ccnn2C)C1` [Cpd. No. 62, 1-(4-(1-methyl-1H-pyrazol-5-yl)-2-phenyl-5,8-dihydropyrido[3,4-d]pyrimidin-7(6H)-yl)prop-2-en-1-one] displayed an EC50 of 1000 to 3000 nM.

`CCC(=O)N1Cc2nc(-c3ccccc3)nc(-c3ccn(C)n3)c2C1` [Cpd. No. 15, 1-(4-(1-methyl-1H-pyrazol-3-yl)-2-phenyl-5,7-dihydro-6H-pyrrolo[3,4-d]pyrimidin-6-yl)propan-1-one] had an EC50 of over 3000 nM.

For the molecule `Cn1ccc(-c2nc(-c3ccc(C(F)(F)F)cc3)nc3c2CCN(C(=O)C2=CCCC2)C3)n1` [Cpd. No. 84, cyclopent-1-en-1-yl(4-(1-methyl-1H-pyrazol-3-yl)-2-(4-(trifluoromethyl)phenyl)-5,8-dihydropyrido[3,4-d]pyrimidin-7(6H)-yl)methanone], the concentration giving a half-maximal response (EC50) was under 1000 nM.

For the molecule `Cn1ccc(-c2nc(-c3ccc(C(F)(F)F)cc3)nc3c2CCN(C#N)C3)n1` [Cpd. No. 78, 4-(1-methyl-1H-pyrazol-3-yl)-2-(4-(trifluoromethyl)phenyl)-5,8-dihydropyrido[3,4-d]pyrimidine-7(6H)-carbonitrile], the EC50 is 1000 to 3000 nM.

`C=CC(=O)N1CCc2c(nc(-c3ccc(F)cc3)nc2-c2ccn(C(F)F)n2)C1` [Cpd. No. 70, 1-(4-(1-(difluoromethyl)-1H-pyrazol-3-yl)-2-(4-fluorophenyl)-5,8-dihydropyrido[3,4-d]pyrimidin-7(6H)-yl)prop-2-en-1-one] showed a concentration for a half-maximal effect (EC50) of under 1000 nM.

For the molecule `CCC(=O)N1CCc2c(nc(Cc3ccc(F)cc3)nc2-c2ccn(C)n2)C1` [Cpd. No. 42, 1-(2-(4-fluorobenzyl)-4-(1-methyl-1H-pyrazol-3-yl)-5,8-dihydropyrido[3,4-d]pyrimidin-7(6H)-yl)propan-1-one], the EC50 was over 3000 nM.

`C=CS(=O)(=O)N1CCc2c(nc(-c3ccc(C(F)(F)F)cc3)nc2-c2ccn(C)n2)C1` [Cpd. No. 80, 4-(1-methyl-1H-pyrazol-3-yl)-2-(4-(trifluoromethyl)phenyl)-7-(vinylsulfonyl)-5,6,7,8-tetrahydropyrido[3,4-d]pyrimidine] returned an EC50 of under 1000 nM.

The molecule `C=CC(=O)N1CCc2c(nc(-c3ccccc3)nc2-c2cnn(C)c2)C1` [Cpd. No. 56] registered a concentration giving a half-maximal response (EC50) of under 1000 nM.

The molecule `CS(=O)(=O)NC1CCc2c(nc(-c3ccccc3)nc2-c2ccn(Cc3cccnc3)n2)C1` (stereo not shown) [Cpd. No. 13, N-(2-phenyl-4-(1-(pyridin-3-ylmethyl)-1H-pyrazol-3-yl)-5,6,7,8-tetrahydroquinazolin-7-yl)methanesulfonamide] yielded a half-maximal effective concentration (EC50) of over 3000 nM.

For the molecule `CCC(=O)NC1CCc2nc(-c3ccccc3)nc(-c3ccn(C)n3)c2C1` (stereo not shown) [Cpd. No. 3, N-(4-(1-methyl-1H-pyrazol-3-yl)-2-phenyl-5,6,7,8-tetrahydroquinazolin-6-yl)propionamide], the half-maximal effective concentration (EC50) was over 3000 nM.

As for `CS(=O)(=O)N1CCc2c(nc(Cc3ccccc3)nc2-c2ccn(Cc3cccnc3)n2)C1` [Cpd. No. 37, 2-benzyl-7-(methylsulfonyl)-4-(1-(pyridin-3-ylmethyl)-1H-pyrazol-3-yl)-5,6,7,8-tetrahydropyrido[3,4-d]pyrimidine], the EC50 was over 3000 nM.

`CS(=O)(=O)N1Cc2nc(-c3ccccc3)nc(-c3ccn(Cc4cccnc4)n3)c2C1` [Cpd. No. 25, 6-(methylsulfonyl)-2-phenyl-4-(1-(pyridin-3-ylmethyl)-1H-pyrazol-3-yl)-6,7-dihydro-5H-pyrrolo[3,4-d]pyrimidine] had an EC50 of 1000 to 3000 nM.

As for `C=CC(=O)N1CCc2c(nc(-c3ccccc3)nc2-c2cnn(C(F)F)c2)C1` [Cpd. No. 61, 1-(4-(1-(difluoromethyl)-1H-pyrazol-4-yl)-2-phenyl-5,8-dihydropyrido[3,4-d]pyrimidin-7(6H)-yl)prop-2-en-1-one], the EC50 was 1000 to 3000 nM.

Molecule `C=CC(=O)NC1CCc2nc(-c3ccccc3)nc(-c3ccn(Cc4cccnc4)n3)c2C1` (stereo not shown) [Cpd. No. 9, N-(2-phenyl-4-(1-(pyridin-3-ylmethyl)-1H-pyrazol-3-yl)-5,6,7,8-tetrahydroquinazolin-6-yl)acrylamide] yielded an EC50 of over 3000 nM.

`CN(C)C/C=C/C(=O)N1CCc2c(nc(-c3ccc(C(F)(F)F)cc3)nc2-c2ccn(C)n2)C1` [Cpd. No. 83, (E)-4-(dimethylamino)-1-(4-(1-methyl-1H-pyrazol-3-yl)-2-(4-(trifluoromethyl)phenyl)-5,8-dihydropyrido[3,4-d]pyrimidin-7(6H)-yl)but-2-en-1-one] came in with an EC50 of under 1000 nM.

In turn, `C=CC(=O)NC1CCc2nc(-c3ccccc3)nc(-c3ccn(C)n3)c2C1` (stereo not shown) [Cpd. No. 2, N-(4-(1-methyl-1H-pyrazol-3-yl)-2-phenyl-5,6,7,8-tetrahydroquinazolin-6-yl)acrylamide] showed an EC50 of over 3000 nM.

For the molecule `Cn1ccc(-c2nc(-c3ccccc3)nc3c2CCC(NS(C)(=O)=O)C3)n1` (stereo not shown) [Cpd. No. 8, N-(4-(1-methyl-1H-pyrazol-3-yl)-2-phenyl-5,6,7,8-tetrahydroquinazolin-7-yl)methanesulfonamide], the EC50 was over 3000 nM.
